Assay results taken from ChEMBL document CHEMBL5649167, “The SUV4-20 inhibitor A-196 verifies a role for epigenetics in genomic integrity” (Nat Chem Biol, 2017).

Columns and labels:
[1] = target: Histone-lysine N-methyltransferase KMT5B (Homo sapiens, UniProt Q4FZB7); test: Inhibition of recombinant human 6His-(Tev)-G-SUV420H1 (69 to 335 residues) using Biotin-tagged H4K20me1 and [3H-SAM] as substrate incubated for 2 hrs by scintillation proximity assay
[2] = target: Histone-lysine N-methyltransferase KMT5C (Homo sapiens, UniProt Q86Y97); test: Inhibition of human SUV420H2 using Biotin-tagged H4K20me1 and [3H-SAM] as substrate incubated for 2 hrs by scintillation proximity assay
Chain of Histone-lysine N-methyltransferase KMT5C (Q86Y97 whole entry): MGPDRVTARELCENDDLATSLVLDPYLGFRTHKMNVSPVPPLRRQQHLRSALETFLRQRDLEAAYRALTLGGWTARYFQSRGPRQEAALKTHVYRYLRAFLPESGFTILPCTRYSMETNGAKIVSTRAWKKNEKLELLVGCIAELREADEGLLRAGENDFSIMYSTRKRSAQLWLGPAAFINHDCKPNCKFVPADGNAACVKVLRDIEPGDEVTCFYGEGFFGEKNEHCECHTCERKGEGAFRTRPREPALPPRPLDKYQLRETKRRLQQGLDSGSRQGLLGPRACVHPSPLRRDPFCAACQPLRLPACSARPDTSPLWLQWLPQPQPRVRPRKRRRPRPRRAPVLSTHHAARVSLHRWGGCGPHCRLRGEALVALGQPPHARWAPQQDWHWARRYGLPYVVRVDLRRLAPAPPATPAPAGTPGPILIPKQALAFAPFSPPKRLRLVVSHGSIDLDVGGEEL

Adenosine receptor A1 = target: T1, Adenosine receptor A1 (Homo sapiens, UniProt P30542); test: Inhibition of human Adenosine receptor A1 assessed as inhibition constant
T1 sequence (P30542 whole entry): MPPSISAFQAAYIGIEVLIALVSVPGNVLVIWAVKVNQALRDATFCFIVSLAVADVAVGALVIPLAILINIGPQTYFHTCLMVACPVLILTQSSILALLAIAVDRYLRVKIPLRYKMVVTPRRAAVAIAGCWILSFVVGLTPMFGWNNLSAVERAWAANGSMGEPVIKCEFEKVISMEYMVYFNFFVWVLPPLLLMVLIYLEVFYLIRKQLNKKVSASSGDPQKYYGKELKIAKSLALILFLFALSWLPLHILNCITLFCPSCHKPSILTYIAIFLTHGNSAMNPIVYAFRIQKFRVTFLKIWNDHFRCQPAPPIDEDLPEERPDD

B-cell [3] = test: Induction of DNA repair in mouse B cells assessed as change in ability of splenic cells to switch from IgM to IgE at 1 uM incubated for 3 days in the presence of LPS plus IL-4 by flow cytometry analysis (Rvb=1.97%); type: functional; conditions: time 3 day
B-cell [4] = test: Induction of DNA repair in mouse B cells assessed as change in ability of splenic cells to switch from IgM to IgE at 10 uM incubated for 3 days in the presence of LPS plus IL-4 by flow cytometry analysis (Rvb=1.97%); type: functional; conditions: time 3 day
[5] = target: Sodium-dependent serotonin transporter (Homo sapiens, UniProt P31645); test: Inhibition of human 5-HT transporter assessed as inhibition constant
Chain of Sodium-dependent serotonin transporter (P31645 whole entry): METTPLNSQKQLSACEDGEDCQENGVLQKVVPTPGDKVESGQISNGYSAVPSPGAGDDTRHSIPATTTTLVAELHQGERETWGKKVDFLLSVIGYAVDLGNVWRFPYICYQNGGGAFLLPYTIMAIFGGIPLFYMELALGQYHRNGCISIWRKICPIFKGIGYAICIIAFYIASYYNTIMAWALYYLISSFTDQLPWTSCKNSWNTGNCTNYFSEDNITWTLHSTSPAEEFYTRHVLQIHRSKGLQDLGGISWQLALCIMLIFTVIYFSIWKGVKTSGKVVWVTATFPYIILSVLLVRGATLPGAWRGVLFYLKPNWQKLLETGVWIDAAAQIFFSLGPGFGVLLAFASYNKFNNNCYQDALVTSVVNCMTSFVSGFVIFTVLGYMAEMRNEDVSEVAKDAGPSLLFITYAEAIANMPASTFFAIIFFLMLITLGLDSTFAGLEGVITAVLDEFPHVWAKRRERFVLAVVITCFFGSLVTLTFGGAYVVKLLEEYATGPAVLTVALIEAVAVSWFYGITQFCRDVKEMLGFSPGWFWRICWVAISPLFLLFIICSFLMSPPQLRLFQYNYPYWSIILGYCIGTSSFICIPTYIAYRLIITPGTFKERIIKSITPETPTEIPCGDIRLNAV

[6] = target: T2, 5-hydroxytryptamine receptor 1A (Homo sapiens, UniProt P08908); test: Inhibition of human 5-HT1A assessed as inhibition constant
T2 sequence (P08908 whole entry): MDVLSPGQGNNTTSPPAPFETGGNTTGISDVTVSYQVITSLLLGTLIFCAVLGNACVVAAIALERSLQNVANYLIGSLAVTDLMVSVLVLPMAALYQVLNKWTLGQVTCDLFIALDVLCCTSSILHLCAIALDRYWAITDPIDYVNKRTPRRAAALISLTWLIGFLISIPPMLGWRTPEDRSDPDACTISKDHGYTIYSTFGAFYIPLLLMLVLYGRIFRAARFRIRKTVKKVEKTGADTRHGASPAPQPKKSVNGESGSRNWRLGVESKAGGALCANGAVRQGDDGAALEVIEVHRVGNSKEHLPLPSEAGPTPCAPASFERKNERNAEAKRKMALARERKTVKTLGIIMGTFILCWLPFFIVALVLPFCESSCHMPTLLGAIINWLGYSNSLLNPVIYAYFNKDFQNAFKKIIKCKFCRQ

B-cell [7] = test: Induction of DNA repair in mouse B cells assessed as change in ability of splenic cells to switch from IgM to IgG3 at 10 uM incubated for 4 days in the presence of LPS by flow cytometry analysis (Rvb=5.71%); type: functional; conditions: time 4 day
B-cell [8] = test: Induction of DNA repair in mouse B cells assessed as change in ability of splenic cells to switch from IgM to IgG3 at 1 uM incubated for 4 days in the presence of LPS by flow cytometry analysis (Rvb=5.71%); type: functional; conditions: time 4 day
[9] = target: Kappa-type opioid receptor (Homo sapiens, UniProt P41145); test: Inhibition of human kappa opioid receptor expressed in stable HEK cells assessed as inhibition constant; type: cell-based
Chain of Kappa-type opioid receptor (P41145 whole entry): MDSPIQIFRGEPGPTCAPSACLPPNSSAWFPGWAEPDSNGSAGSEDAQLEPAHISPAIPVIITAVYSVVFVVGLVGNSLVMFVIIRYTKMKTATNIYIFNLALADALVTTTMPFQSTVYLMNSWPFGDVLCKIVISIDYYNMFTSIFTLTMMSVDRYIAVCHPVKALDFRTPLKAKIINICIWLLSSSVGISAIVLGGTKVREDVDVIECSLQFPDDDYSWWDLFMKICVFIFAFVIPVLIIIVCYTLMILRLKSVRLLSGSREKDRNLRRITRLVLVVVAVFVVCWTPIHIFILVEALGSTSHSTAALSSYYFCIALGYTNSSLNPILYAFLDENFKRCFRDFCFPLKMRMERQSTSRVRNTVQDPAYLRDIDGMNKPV

B-cell [10] = test: Induction of DNA repair in mouse B cells assessed as change in ability of splenic cells to switch from IgM to IgG1 at 10 uM incubated for 2 days in the presence of LPS by flow cytometry analysis (Rvb=9.59%); type: functional; conditions: time 2 day
[11] = target: L-type calcium channel (verapamil binding site) (Homo sapiens, UniProt O60840+Q01668+Q13698+Q13936); test: Inhibition of human L-type calcium channel verapamil binding site at 10 uM relative to control; type: protein assay
[12] = target: T3, 5-hydroxytryptamine receptor 2A (Homo sapiens, UniProt P28223); test: Inhibition of human 5-HT2A receptor expressed in HEK293T cells assessed as inhibition constant; type: cell-based
T3 sequence (P28223 whole entry): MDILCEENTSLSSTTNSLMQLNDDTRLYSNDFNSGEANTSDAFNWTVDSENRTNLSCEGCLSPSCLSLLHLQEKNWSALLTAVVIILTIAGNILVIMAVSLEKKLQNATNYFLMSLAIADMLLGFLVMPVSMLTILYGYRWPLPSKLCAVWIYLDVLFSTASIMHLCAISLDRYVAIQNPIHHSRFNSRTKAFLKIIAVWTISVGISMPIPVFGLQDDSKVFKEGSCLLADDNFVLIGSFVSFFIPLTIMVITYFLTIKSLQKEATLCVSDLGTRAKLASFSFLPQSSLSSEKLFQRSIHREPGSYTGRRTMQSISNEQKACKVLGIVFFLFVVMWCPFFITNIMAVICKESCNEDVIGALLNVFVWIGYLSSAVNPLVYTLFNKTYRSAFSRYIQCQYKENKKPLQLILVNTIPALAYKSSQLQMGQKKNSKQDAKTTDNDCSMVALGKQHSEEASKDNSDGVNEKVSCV

Adenosine receptor A3 = target: T4, Adenosine receptor A3 (Homo sapiens, UniProt P0DMS8); test: Inhibition of human Adenosine receptor A3 assessed as inhibition constant
T4 sequence (P0DMS8 whole entry): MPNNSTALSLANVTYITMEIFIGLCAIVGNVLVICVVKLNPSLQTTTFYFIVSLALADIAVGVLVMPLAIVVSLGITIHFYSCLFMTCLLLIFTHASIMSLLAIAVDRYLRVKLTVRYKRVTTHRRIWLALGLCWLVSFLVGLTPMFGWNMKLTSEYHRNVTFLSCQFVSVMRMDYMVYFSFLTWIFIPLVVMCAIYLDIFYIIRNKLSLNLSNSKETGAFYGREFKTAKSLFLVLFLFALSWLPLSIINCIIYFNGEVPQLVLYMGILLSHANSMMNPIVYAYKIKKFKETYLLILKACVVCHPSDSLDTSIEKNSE

[13] = target: T3, 5-hydroxytryptamine receptor 2A; test: Inhibition of human 5-HT2A assessed as inhibition constant
[14] = target: KV channel (voltage-gated potassium channel) (Homo sapiens, UniProt O43525+O43526+O95259+P16389+P17658+P22001+P22459+P22460+P48547+P51787+P56696+Q03721+Q09470+Q12809+Q14003+Q14721+Q16322+Q6PIU1+Q8NCM2+Q8TAE7+Q8TDN1+Q8TDN2+Q92953+Q96KK3+Q96L42+Q96PR1+Q96RP8+Q9BQ31+Q9H252+Q9H3M0+Q9NR82+Q9NS40+Q9NSA2+Q9NZV8+Q9UIX4+Q9UJ96+Q9UK17+Q9ULD8+Q9ULS6+Q9UQ05); test: Inhibition of human KV channel at 10 uM relative to control; type: protein assay
[15] = Inhibition of human 5-HT3 receptor expressed in HEK293T cells at 10 uM relative to control; conditions: HEK-293T
[16] = Inhibition of Rat GABAA assessed as inhibition constant in the presence of PBR
Adenosine receptor A2a = Adenosine receptor A2a (Homo sapiens, UniProt P29274); test: Inhibition of human Adenosine receptor A2a assessed as inhibition constant
Chain of Adenosine receptor A2a (P29274 whole entry): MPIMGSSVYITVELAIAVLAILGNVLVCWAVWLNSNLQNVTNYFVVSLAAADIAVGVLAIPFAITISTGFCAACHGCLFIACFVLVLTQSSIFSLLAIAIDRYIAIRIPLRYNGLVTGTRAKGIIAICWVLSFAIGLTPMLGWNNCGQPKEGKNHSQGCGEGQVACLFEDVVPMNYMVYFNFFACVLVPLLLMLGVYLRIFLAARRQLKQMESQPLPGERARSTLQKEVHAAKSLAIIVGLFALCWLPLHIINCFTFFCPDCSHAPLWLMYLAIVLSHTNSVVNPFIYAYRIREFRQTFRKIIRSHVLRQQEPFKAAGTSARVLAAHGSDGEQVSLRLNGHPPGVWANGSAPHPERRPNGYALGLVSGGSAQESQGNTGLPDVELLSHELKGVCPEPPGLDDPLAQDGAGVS

B-cell [17] = test: Induction of DNA repair in mouse B cells assessed as change in ability of splenic cells to switch from IgM to IgG1 incubated for 2 days at 1 uM in the presence of LPS by flow cytometry analysis (Rvb=9.59%); type: functional; conditions: time 2 day

Chain of Histone-lysine N-methyltransferase KMT5B (Q4FZB7 whole entry, the tested form may be a part): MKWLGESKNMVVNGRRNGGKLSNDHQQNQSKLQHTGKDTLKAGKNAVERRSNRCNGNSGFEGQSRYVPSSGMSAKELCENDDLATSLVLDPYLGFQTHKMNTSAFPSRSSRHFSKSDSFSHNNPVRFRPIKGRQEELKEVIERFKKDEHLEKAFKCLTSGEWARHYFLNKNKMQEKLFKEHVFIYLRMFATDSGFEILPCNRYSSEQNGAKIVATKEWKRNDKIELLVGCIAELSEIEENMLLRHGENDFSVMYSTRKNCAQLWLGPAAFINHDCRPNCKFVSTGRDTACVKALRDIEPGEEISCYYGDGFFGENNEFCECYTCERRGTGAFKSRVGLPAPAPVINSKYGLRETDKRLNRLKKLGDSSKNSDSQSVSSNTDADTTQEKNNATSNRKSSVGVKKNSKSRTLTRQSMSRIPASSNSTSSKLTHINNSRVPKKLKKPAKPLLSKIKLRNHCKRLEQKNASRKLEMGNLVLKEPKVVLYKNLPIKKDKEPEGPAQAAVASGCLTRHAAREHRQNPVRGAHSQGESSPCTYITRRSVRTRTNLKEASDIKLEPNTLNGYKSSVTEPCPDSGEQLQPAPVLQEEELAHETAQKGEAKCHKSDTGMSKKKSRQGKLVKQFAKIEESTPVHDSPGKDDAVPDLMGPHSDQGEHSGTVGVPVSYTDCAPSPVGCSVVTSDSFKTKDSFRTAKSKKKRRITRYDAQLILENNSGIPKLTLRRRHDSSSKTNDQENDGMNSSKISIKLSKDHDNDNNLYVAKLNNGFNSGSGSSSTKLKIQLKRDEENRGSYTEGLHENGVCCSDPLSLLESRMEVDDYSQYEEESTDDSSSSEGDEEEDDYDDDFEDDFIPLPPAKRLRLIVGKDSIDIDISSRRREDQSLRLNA

IC50 [1] [µM] | IC50 [2] [µM] | Ki (Adenosine receptor A1) [µM] | Ki [5] [µM] | Ki [6] [µM] | Ki [9] [µM] | inhibition at 10 µM [11] [%] | Ki [12] [µM] | Ki (Adenosine receptor A3) [µM] | Ki [13] [µM] | inhibition at 10 µM [14] [%] | Ki [16] [µM] | Ki (Adenosine receptor A2a) [µM] | SMILES | Activity (B-cell [3]) [%] | Activity (B-cell [4]) [%] | Activity (B-cell [7]) [%] | Activity (B-cell [8]) [%] | Activity (B-cell [10]) [%] | inhibition at 10 µM [15] [%] | Activity (B-cell [17]) [%]
0.59 | 1.2 |  |  |  |  |  |  |  |  |  |  |  | Clc1cc2nccc(NC3CCCC3)c2cc1Cl |  |  |  |  |  |  | 
> 10 | > 10 | 3.1 | 3.9 | > 10 | 2.7 | 4 | > 10 | 13 | 13 | -5 | 1.1 | 20 | O=C(c1nnc(NC2CCCC2)c2cc(Cl)c(Cl)cc12)N1CCC(O)CC1 | 2.45 | 1.94 | 5.11 | 5.55 | 10.6 | -5 | 10.7
